In US20260053800A1 (Veradermics, Incorporated, priority 2024, published 2026):

What was measured:
[1] = cited from earlier work
[2] = system: mice; details: dietary up to 2 years, cited from earlier work
[3] = Case studies, oral minoxidil in male patients with androgenetic alopecia (blood pressure, heart rate, hair growth); details: person
[4] = system: rats; details: two-year study, oral administration; cited from earlier work
[5] = system: human lymphocytes; details: cited from earlier work
[6] = system: Chinese hamster cells; details: long exposure times; cited from earlier work
[7] = system: rat bone marrow; details: in vivo; cited from earlier work
[8] = hypertensive patients; intravenous infusion; cited from earlier work
[9] = system: mouse bone marrow; details: in vivo; cited from earlier work
[10] = system: rat hepatocyte; details: cited from earlier work
[11] = cited from earlier work; remark: listed apart in the source

For `Nc1cc(N2CCCCC2)nc(N)[n+]1[O-]` [minoxidil], the “effect on blood pressure” value ([1]; normotensive healthy volunteers, 2.5 mg, 5 mg, or 10 mg oral) is given as “little effect on blood pressure”, the “fraction of oral dose metabolized” value ([1]; primarily conjugation with glucuronic acid) is given as “About 90%” and the “incidence of malignant lymphomas” value ([2]; females, all dose levels (10, 25, and 63 mg/kg/day)) is given as “increased incidence of malignant lymphomas in females”. For the same molecule, the “incidence of hepatic nodules” value ([2]; males, 63 mg/kg/day) was “increased incidence of hepatic nodules in males”, the adverse events ([3]; 0.625 mg four times a day) was “No unwanted hair growth or other adverse events were noticed” and the “reductions in blood pressure” value ([3]; 0.625 mg four times a day) was “did not experience significant reductions in blood pressure”. For the same molecule, the adverse events ([3]; 1.25 mg QID) was “No unwanted hair growth or other adverse events, including any cardiac effects, were noticed”, the carcinogenicity findings [4] was “no positive findings” and the cytogenetic assay result [5] was “negative”. For the same molecule, the cytogenetic assay result [6] was “equivocal”, the mutagenicity [7] was “not mutagenic” and the “steady state plasma concentration associated with significant (>5 beats per minute) changes in heart rate” value [8] was “above 20 ng/mL”. For the same molecule, the mutagenicity [9] was “not mutagenic”, the mutagenicity [10] was “not mutagenic” and the “temporary decrease in hematocrit, hemoglobin, and erythrocyte count” value ([11]; chronic therapy for severe hypertension, initially) was “approximately 7%”. The “patients exhibiting ECG alterations of T waves” value ([11]; soon after starting therapy) was “approximately 60%”.
